According to paper PMC9120017, “Inhibition mechanism of the chloride channel TMEM16A by the pore blocker 1PBC” (Nature Communications, 2022):
Like-named read-outs stand apart in the source and are kept apart here.

Target: T1, mouse TMEM16A mutant Q649A (Mus musculus, UniProt Q8BHY3, Q649A)
T1 construct: expressed in transfected cells; host or cells: HEK293T
T1 sequence (Q8BHY3 1-960 Q649A): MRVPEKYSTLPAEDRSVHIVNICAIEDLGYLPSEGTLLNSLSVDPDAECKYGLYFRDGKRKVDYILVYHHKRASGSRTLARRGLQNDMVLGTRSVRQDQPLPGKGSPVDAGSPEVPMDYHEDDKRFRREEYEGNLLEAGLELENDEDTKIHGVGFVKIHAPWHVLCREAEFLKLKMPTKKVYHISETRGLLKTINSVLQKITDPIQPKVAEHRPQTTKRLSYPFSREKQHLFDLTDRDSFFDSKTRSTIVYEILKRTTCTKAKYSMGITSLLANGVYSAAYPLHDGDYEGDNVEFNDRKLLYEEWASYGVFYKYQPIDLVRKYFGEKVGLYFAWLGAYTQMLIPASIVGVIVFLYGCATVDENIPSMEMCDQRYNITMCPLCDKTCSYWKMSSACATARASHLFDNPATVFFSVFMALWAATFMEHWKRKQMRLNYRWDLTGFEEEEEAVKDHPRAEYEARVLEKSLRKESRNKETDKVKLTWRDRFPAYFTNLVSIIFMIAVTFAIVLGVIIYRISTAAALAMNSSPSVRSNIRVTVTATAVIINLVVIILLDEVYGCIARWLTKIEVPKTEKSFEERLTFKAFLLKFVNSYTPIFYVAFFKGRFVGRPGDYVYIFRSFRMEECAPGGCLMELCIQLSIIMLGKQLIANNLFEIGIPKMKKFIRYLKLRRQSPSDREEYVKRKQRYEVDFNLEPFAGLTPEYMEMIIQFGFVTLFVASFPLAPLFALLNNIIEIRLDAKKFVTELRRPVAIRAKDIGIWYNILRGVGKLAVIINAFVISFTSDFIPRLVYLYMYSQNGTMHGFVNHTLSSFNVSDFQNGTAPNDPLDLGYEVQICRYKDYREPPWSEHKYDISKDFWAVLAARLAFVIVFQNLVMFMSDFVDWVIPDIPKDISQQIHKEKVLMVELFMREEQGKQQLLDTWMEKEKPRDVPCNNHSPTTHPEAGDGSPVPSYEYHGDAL
Test: Inside-out patch recording of 1PBC block, constitutively active mutant Q649A
Assay type: cell-based
Conditions: for remaining activity at 3 µM: 3 µM 1PBC; for remaining activity at 10 µM: 10 µM 1PBC; for remaining activity at 30 µM: 30 µM 1PBC
Protocol: HEK293T cells (ATCC CRL-1573) were maintained in Dulbecco’s modified Eagle’s medium (DMEM; Sigma-Aldrich) supplemented with 10 U ml^−1 penicillin, 0.1 mg ml^−1 streptomycin (Sigma-Aldrich), 2 mM L-glutamine (Sigma-Aldrich), and 10% FBS (Sigma-Aldrich) in a humidified atmosphere containing 5% CO2 at 37 °C. HEK293S GnTI^− cells (ATCC CRL-3022) were maintained in HyClone HyCell TransFx-H medium (GE Healthcare) supplemented with 10 U ml^−1 penicillin, 0.1 mg ml^−1 streptomycin, 4 mM L-glutamine, 0.15% poloxamer 188 (Sigma-Aldrich), and 1% FBS in an atmosphere containing 5% CO2 at 185 rpm at 37 °C. The ac splice variant of mouse TMEM16A (UniProt ID: Q8BHY3), mouse TMEM16B (UniProt ID: Q8CFW1), or mouse TMEM16F (UniProt ID: Q6P9J9) bearing a 3C cleavage site, a Venus YFP, a Myc tag, and a Streptavidin-binding peptide (SBP) downstream of the open reading frame in a modified pcDNA3.1 vector (Invitrogen) were used as described previously[21],[31]. Mutations were introduced using a modified QuikChange method[58] and were verified by sequencing.
HEK293T cells were transfected with 3–4 μg DNA per 6 cm Petri dish using the calcium phosphate co-precipitation method and were used within 24–96 h after transfection. Recordings were performed on inside-out patches excised from HEK293T cells expressing the construct of interest. Patch pipettes were pulled from borosilicate glass capillaries (O.D. 1.5 mm, I.D. 0.86 mm, Sutter Instrument) and were fire-polished with a microforge (Narishige) before use. Pipette resistance was typically 3–8 MΩ when filled with the recording solutions detailed below. Seal resistance was typically 4 GΩ or higher. Voltage-clamp recordings were made using Axopatch 200B, Digidata 1550, and Clampex 10.7 (Molecular Devices). Analog signals were filtered with the in-built 4-pole Bessel filter at 10 kHz and were digitized at 20 kHz. Solution exchange was achieved using a gravity-fed system through a theta glass pipette mounted on an ultra-fast piezo-driven stepper (Siskiyou). […] All recordings were performed at 20 °C.
A symmetrical ionic condition was used throughout. Stock solution with Ca^2+-EGTA contained 150 mM NaCl, 5.99 mM Ca(OH)2, 5 mM EGTA, and 10 mM HEPES at pH 7.40. Stock solution with EGTA contained 150 mM NaCl, 5 mM EGTA, and 10 mM HEPES at pH 7.40. Free Ca^2+ concentrations were adjusted by mixing the stock solutions at the required ratios calculated using the WEBMAXC program (http://web.stanford.edu/~cpatton/webmaxcS.htm). Patch pipettes were filled with the stock solution with Ca^2+-EGTA, which has a free Ca^2+ concentration of 1 mM. 1PBC (ChemBridge) stock was reconstituted in anhydrous DMSO (Sigma-Aldrich) at 100 mM and stored at −20 °C. Working solutions with 1PBC were prepared by serial dilution. Unless otherwise stated, experiments were performed at a saturating Ca^2+ concentration as shown in Supplementary Table 1 and the primary data were corrected for current rundown as described previously[21],[25].
Concentration-response relations, obtained from the ratio of the I-V plots before and after the application of the blocker, were fitted to the Hill equation,1 I/Imax=1/1+IC50/[blocker]^h where I/Imax is the normalized current responses, IC50 defines the concentration at which inhibition is at its half-maximum, and h is the Hill coefficient.

[1] = 0 mV, 2 µM Ca2+, read-out: I/Imax
[2] = 0 mV, zero Ca2+, read-out: I/Imax

N#Cc1c(C(F)(F)F)cc(O)n2c1nc1ccccc12 [1PBC]
I/Imax_+80mV (0Ca, 3 μM 1PBC): 0.8995
I/Imax_-80mV (0Ca, 3 μM 1PBC): 0.9942
I/Imax_+80mV (0Ca, 10 μM 1PBC): 0.7384
I/Imax_-80mV (0Ca, 10 μM 1PBC): 0.9446
I/Imax_+80mV (0Ca, 30 μM 1PBC): 0.483
I/Imax_-80mV (0Ca, 30 μM 1PBC): 0.815
I/Imax_+80mV (0Ca, 100 μM 1PBC): 0.2577
I/Imax_-80mV (0Ca, 100 μM 1PBC): 0.578
remaining activity at 1 µM (1 µM 1PBC, 0 mV, 2 µM Ca2+, read-out: I/Imax): 80%
remaining activity at 3 µM [1]: 57.9%
remaining activity at 3 µM [2]: 92.9%
remaining activity at 10 µM [1]: 31.4%
remaining activity at 10 µM [2]: 84.7%
remaining activity at 30 µM [1]: 13.7%
remaining activity at 30 µM [2]: 63.9%
remaining activity at 100 µM (100 µM 1PBC, 0 mV, zero Ca2+, read-out: I/Imax): 39.9%
I/Imax_+80mV (Ca, 1 μM 1PBC): 0.7635
I/Imax_-80mV (Ca, 1 μM 1PBC): 0.9086
I/Imax_+80mV (Ca, 3 μM 1PBC): 0.5067
I/Imax_-80mV (Ca, 3 μM 1PBC): 0.7508
I/Imax_+80mV (Ca, 10 μM 1PBC): 0.2578
I/Imax_-80mV (Ca, 10 μM 1PBC): 0.4875
I/Imax_+80mV (Ca, 30 μM 1PBC): 0.09866
I/Imax_-80mV (Ca, 30 μM 1PBC): 0.2347
Decrease in potency of block, Ca2+-free form vs Ca2+-bound state (zero vs 2 µM Ca2+): about ten-fold
